Data set [1] concerns 3T3-L1. Put plainly: Cytotoxicity against mouse 3T3L1 cells measured after 72 hrs by celltiter-glo luminescent cell viability assay. The class given is ADME, cell-based. To be noted: 3T3-L1, 72 h. Background: Cellular ATP, detected with luciferase, serves as a proxy for viable cell number.
For data set [2], the target named is 11-beta-hydroxysteroid dehydrogenase 1 (Homo sapiens, UniProt P28845, C272S). Put plainly: Inhibition of N-terminal MKHQHQHQHQHQHQQPL-tagged 11beta-HSD1 C272S mutant (unknown origin) expressed in Escherichia coli BL21 (DE3) using cortisol as substrate measured for 1 hr in presence of NADPH by fluorescence assay.
Chain of 11-beta-hydroxysteroid dehydrogenase 1 (P28845 whole entry C272S): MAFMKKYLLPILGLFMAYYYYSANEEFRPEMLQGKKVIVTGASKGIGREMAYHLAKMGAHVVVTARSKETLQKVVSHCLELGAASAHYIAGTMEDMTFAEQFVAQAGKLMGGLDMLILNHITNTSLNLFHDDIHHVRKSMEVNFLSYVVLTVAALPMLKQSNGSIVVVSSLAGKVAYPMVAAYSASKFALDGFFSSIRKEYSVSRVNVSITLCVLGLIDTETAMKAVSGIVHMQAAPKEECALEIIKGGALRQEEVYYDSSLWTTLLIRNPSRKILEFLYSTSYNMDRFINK
Data set [3] addresses T1, 11-beta-hydroxysteroid dehydrogenase type 2 (Homo sapiens, UniProt P80365).
T1 sequence (P80365 whole entry): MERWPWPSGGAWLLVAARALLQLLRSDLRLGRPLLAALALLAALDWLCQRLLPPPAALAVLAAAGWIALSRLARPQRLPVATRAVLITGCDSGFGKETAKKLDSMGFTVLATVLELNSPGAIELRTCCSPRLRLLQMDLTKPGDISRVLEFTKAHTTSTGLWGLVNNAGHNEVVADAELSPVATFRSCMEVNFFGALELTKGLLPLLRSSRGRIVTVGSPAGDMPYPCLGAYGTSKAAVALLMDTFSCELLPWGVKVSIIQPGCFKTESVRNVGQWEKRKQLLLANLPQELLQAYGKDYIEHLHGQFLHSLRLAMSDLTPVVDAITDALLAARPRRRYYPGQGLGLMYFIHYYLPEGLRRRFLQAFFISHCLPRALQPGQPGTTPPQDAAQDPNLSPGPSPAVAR
Put plainly: Inhibition of 11beta-HSD2 (unknown origin) expressed in HEK293 cells using cortisone as substrate measured after 2 hrs in presence of NAD+ by HTRF assay. The class given is ADME, cell-based.

Data set [4] can be described thus: Half life in human plasma. It is filed as ADME, cell-free.
A short description of data set [5]: Stability in mouse plasma. The class given is ADME, cell-free.
A short description of data set [6]: Half life in simulated gastric fluid. It is filed as ADME.
Data set [7] is described as follows: Half life in human liver microsomes. The class given is ADME, Microsome. In general terms: Liver microsomes are a subcellular fraction often used to study metabolism.
Data set [8] can be described thus: Half life in mouse liver microsomes. The class given is ADME, Microsome.
For data set [9], the system named is 3T3-L1. As to the kind of experiment: Inhibition of cell differentiation in mouse 3T3L1 cells assessed as reduction in pre-adipocyte differentiation into matured adipocytes at 50 uM incubated for 48 hrs under induction medium containing dehydrocorticosterone/cortisone followed by shifting to differentiation medium and measured after 7 days by Oil red O staining-based microscopic analysis. It is filed as functional.

Data set [10] addresses T2, Peroxisome proliferator-activated receptor gamma (Homo sapiens, UniProt P37231).
T2 sequence (P37231 whole entry): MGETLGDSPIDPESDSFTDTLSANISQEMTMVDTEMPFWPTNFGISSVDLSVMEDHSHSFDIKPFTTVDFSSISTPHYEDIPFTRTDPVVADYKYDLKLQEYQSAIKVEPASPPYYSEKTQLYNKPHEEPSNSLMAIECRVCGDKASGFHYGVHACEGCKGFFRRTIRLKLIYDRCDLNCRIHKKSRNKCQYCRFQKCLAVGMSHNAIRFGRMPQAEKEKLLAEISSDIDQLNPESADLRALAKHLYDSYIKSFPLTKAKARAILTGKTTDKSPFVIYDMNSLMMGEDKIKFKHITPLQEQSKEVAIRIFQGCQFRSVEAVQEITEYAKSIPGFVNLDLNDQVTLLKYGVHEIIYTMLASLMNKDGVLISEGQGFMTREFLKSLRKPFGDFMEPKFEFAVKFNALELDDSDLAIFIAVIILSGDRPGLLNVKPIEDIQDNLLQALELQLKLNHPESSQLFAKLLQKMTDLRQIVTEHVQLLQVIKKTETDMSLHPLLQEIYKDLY
As to the kind of experiment: Antagonist activity at human PPARgamma expressed in 293H cells assessed as reduction in rosiglitazone-induced transcriptional response preincubated for 30 mins followed by rosiglitazone addition and measured after 16 hrs by reporter gene-based FRET assay. The class given is cell-based. On the technique in general: In a reporter assay the amount or activity of a reporter protein is the signal.

Active and inactive are the calls of the source.

Broadly, the EC50 is the concentration needed to bring the measured effect to its halfway point. As a reminder, the IC50 is the concentration that gives 50% inhibition. Take `CC1=CC[C@@]2(C[C@@H]1O)[C@H](C(=O)O)CC[C@H]2C(C)C`: the EC50 in the data set on 3T3-L1 [1] is greater than 500 µM. Moreover, the half-inhibitory concentration (IC50) in data set [2] and in [3] was greater than 500 µM each time.

The half-life is the time needed for the level to fall by half in the phase considered. A higher half-life goes with slow decline. Broadly, the Ki is the equilibrium dissociation constant of an inhibitor or competing ligand from its target. In the case of `CC1=CC[C@@]2([C@H](O)C1)[C@@H](C(=O)O)CC[C@H]2C1CCCCC1`, the concentration giving a half-maximal response (EC50) with 3T3-L1 [1] was greater than 500 µM. Further, the half-life in [4] is greater than 48 h; in [6] it was greater than 6 h. Besides, the half-inhibitory concentration (IC50) in [2] was 27.2 µM; in data set [3], greater than 500 µM. The inhibitory constant (Ki) in data set [2] was determined as 4.63 µM. Also, the Stability result in data set [5] is on record as “Stable”. The values for the t1/2 in [7] and in data set [8] were 1.29 h and 0.3 h, respectively.

In the data set with 3T3-L1 [1], `CC1=CC[C@@]2(C[C@@H]1O)[C@@H](C(=O)O)CC[C@H]2C1CCCCC1` returned an EC50 greater than 500 µM. The half-life in [4] was greater than 48 h; in [6] it was greater than 6 h. Also, the IC50 is 1.34 µM in data set [2] and greater than 500 µM in data set [3]. Further, in data set [2], the Ki was 0.21 µM. Moreover, in data set [5], the Stability entry was “Stable”. The inhibition entry with 3T3-L1 [9] is “Active”. The results for the t1/2 in data set [7] and in data set [8] were 0.3 h and 0.13 h, respectively.

For `CC1=CC[C@@]2(CC1=O)[C@@H](C(=O)O)CC[C@H]2C(C)C`, the concentration for a half-maximal effect (EC50) in the data set on 3T3-L1 [1] was greater than 500 µM. The half-life is greater than 48 h in data set [4] and greater than 6 h in data set [6]. In addition, the IC50 is 42.4 µM in data set [2] and greater than 500 µM in data set [3]. Besides, the Ki in data set [2] stood at 5.15 µM. Besides, the Stability result in data set [5] was “Stable”. The figures for the t1/2 in data set [7] and in data set [8] were 6.8 h and 2.23 h, respectively.

As for `C=C1CC[C@@]2(C[C@@H]1O)[C@@H](C(=O)O)CC[C@H]2C(C)C`, in the data set with 3T3-L1 [1], the EC50 is greater than 500 µM. Besides, the IC50 in [2] is 38.3 µM; in data set [3], greater than 500 µM.

Regarding `CC1=CC[C@@]2(C[C@@H]1O)[C@@H](C(N)=O)CC[C@H]2C(C)C`, the EC50 in the data set with 3T3-L1 [1] is greater than 500 µM. In [2], the concentration for half-maximal inhibition (IC50) is greater than 500 µM and the inhibitory constant (Ki) was greater than 500 µM. In data set [3], the IC50 is greater than 500 µM.

For the compound `CC1=CC[C@@]2([C@H](O)C1)[C@@H](C(=O)O)CC[C@H]2C(C)C`, the concentration giving a half-maximal response (EC50) in the data set on 3T3-L1 [1] is greater than 500 µM. In addition, in data set [2], the IC50 was 55.1 µM and the Ki came to 8.23 µM. For the same compound, in [3], the IC50 is greater than 500 µM.

As for `CC1=CC[C@@]2(C=C1)[C@@H](C(=O)O)CC[C@H]2C1CCCCC1`, in the data set on 3T3-L1 [1], the concentration for a half-maximal effect (EC50) is greater than 300 µM. Besides, the half-life in [4] was greater than 48 h; in [6], greater than 6 h. In addition, the half-inhibitory concentration (IC50) in data set [2] is 2.2 µM; in [3], greater than 500 µM. Besides, the Stability entry in data set [5] is “Stable”. For the same compound, in the data set on 3T3-L1 [9], the inhibition entry is “Active”. The t1/2 in data set [7] turned out to be 0.93 h; in [8], 0.27 h.

As to `CC(=O)O[C@H]1C[C@]2(CC=C1C)[C@@H](C(=O)O)CC[C@H]2C(C)C`, in the data set on 3T3-L1 [1], the EC50 is greater than 500 µM. Moreover, the IC50 in data set [2] was 178 µM; in data set [3] it was greater than 500 µM.

In the case of `C=C1CC[C@@]2(C[C@@H]1OC(C)=O)[C@@H](C(=O)O)CC[C@H]2C(C)C`, the EC50 in the data set with 3T3-L1 [1] is greater than 500 µM. For the same compound, the IC50 in data set [2] was 71 µM; in data set [3], greater than 500 µM.

In turn, `CC1(C)[C@@H](OC(=O)CCC(=O)O)CC[C@]2(C)[C@H]3C(=O)C=C4[C@@H]5C[C@@](C)(C(=O)O)CC[C@]5(C)CC[C@@]4(C)[C@]3(C)CC[C@@H]12` [CARBENOXOLONE] showed a 50% effective concentration (EC50) with 3T3-L1 [1] greater than 500 µM.

With `CC(C)[C@@H]1CC[C@H](C(=O)O)[C@]12C[C@@H](O)[C@@](C)(O)[C@@H](O)C2`, the EC50 with 3T3-L1 [1] is greater than 500 µM. In addition, in data set [2], the 50% inhibitory concentration (IC50) was greater than 500 µM and the Ki came to 130 µM. The IC50 in [3] was greater than 500 µM.

The compound `C=C1CC[C@@]2(C(OC)[C@@H]1O)[C@@H](C(=O)O)CC[C@H]2C(C)C` (stereo not given in full) yielded an EC50 in the data set on 3T3-L1 [1] greater than 500 µM. For the same compound, in data set [2], the IC50 is greater than 500 µM and the Ki was found to be 145 µM. In addition, the half-inhibitory concentration (IC50) in data set [3] was greater than 500 µM.

For `CC1=CC[C@@]2(C[C@H]1O)[C@@H](C(C)C)CC[C@H]2C(=O)O`, in the data set with 3T3-L1 [1], the EC50 is greater than 500 µM. Besides, the half-inhibitory concentration (IC50) was 80.3 µM in data set [2] and greater than 500 µM in [3].

`C=C1CC[C@]2(C[C@@H]1O)[C@H](C)CC[C@@H]2C(=O)O` gave an EC50 in the data set with 3T3-L1 [1] greater than 500 µM. Besides, the half-inhibitory concentration (IC50) is 162 µM in data set [2] and greater than 500 µM in [3].

For `O=C(Nc1ccccc1)c1cc([N+](=O)[O-])ccc1Cl`, the concentration for a half-maximal effect (EC50) in [10] turned out to be 0.002 µM.

On to `C[C@]1(O)CC[C@@]2(C[C@@H]1O)[C@@H](C(=O)O)CC[C@H]2C1CCCCC1`, for which, in the data set with 3T3-L1 [1], the half-maximal effective concentration (EC50) was greater than 500 µM. In addition, the IC50 in data set [2] is 379 µM; in data set [3] it was greater than 500 µM. Besides, in [2], the Ki was 57.6 µM.

Consider `COC(=O)[C@H]1CC[C@@H](C(C)C)[C@@]12CC=C(C)[C@@H](O)C2`, for which the EC50 in the data set on 3T3-L1 [1] is greater than 500 µM. In addition, in [2], the IC50 was greater than 500 µM and the Ki was greater than 500 µM. In data set [3], the IC50 is greater than 500 µM.

`CC(=O)O[C@@H]1C[C@@](C)(O)CC[C@]12[C@@H](C(=O)O)CC[C@H]2C(C)C` returned an EC50 in the data set with 3T3-L1 [1] greater than 500 µM. In data set [2], the concentration for half-maximal inhibition (IC50) was greater than 500 µM and the Ki was determined as 289 µM. For the same compound, the IC50 in data set [3] was greater than 500 µM.
